# Measured values as given in PMC11256326, “Discovery of Heparin Mimetic, Potent, and Selective Inhibitors of Human Clotting Factor XIIIa” (ACS Omega, 2024).
# Marks after values point to notes of the source that are not given here.
# Biological target: T1, FXIIIa (Homo sapiens, UniProt P00488)
# T1 construct: purchased Haematologic Technologies; host or cells: human plasma
# T1 sequence (P00488 39-732 limits assumed): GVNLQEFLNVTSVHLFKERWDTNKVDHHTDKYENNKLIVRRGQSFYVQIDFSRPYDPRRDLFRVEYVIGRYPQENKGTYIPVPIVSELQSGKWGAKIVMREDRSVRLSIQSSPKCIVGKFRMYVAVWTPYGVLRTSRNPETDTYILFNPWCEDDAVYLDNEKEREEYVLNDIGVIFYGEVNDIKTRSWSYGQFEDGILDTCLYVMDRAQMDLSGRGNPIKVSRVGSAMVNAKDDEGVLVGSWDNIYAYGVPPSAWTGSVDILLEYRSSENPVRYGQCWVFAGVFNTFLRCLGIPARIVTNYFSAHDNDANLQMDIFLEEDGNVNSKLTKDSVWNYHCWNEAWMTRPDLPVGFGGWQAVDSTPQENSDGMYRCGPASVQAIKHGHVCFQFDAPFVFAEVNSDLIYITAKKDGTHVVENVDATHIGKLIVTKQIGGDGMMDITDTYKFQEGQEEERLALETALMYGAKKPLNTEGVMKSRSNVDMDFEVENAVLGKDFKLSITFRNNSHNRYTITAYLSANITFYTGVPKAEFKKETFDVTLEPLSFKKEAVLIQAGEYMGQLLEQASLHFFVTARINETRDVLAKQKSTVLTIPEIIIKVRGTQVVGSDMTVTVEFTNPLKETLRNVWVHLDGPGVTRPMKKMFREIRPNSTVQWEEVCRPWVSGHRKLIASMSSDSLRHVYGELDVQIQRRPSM
# Experiment: Michaelis-Menten kinetics of dansylcadaverine and N,N-dimethylcasein conjugation by human FXIIIa
# Format: biochemical
# Details: for VMAX, dansylcadaverine varied: N,N-dimethylcasein 5 mg/mL; for VMAX, dimethylcasein varied: dansylcadaverine 250 μM
# Description: To elucidate the FXIIIa inhibitory capacity of compound 16, the kinetics of dansylcadaverine conjugation with dimethylcasein by FXIIIa were investigated with and without the inhibitor using the bisubstrate fluorescence assay.[36],[49],[55] At a fixed, high concentration of dansylcadaverine (250 μM), the initial rate of conjugation increased in a hyperbolic manner with increasing concentration of dimethylcasein (0–15 mg/mL) (Figure 6A) in the presence as well as absence of inhibitor 16. Analysis using the Michaelis equation led to KM values for dimethylcasein of 0.65 ± 0.04 mg/mL (∼29.5 μM) and 7.54 ± 0.90 mg/mL (∼342.7 μM) in the absence and presence of 16, respectively (Table 4). […] To derive kinetic constants for dansylcadaverine, we used a fixed, high concentration of dimethylcasein (5 mg/mL) and studied the initial rate of conjugation, as described above. […] It is important to note that FXIIIa-mediated reaction is a bisubstrate conjugation reaction and its interaction with inhibitor 16 is sensed differently by the two substrates. […] Yet, for both substrates, there was a similar slight decrease (∼1.5-fold) in the VMAX with the same inhibitor concentration. In these experiments inhibitor 16 was used at varying levels, of which the highest concentration ensured that FXIIIa was essentially fully saturated and inhibited.
# The initial rate of FXIIIa-mediated conjugation between dansylcadaverine and N,N-dimethylcasein was determined by monitoring the linear increase in fluorescence at λEM = 550 nm (λEX = 360 nm). This initial rate was assessed as a function of various concentrations of either (1) dansylcadaverine (ranging from 0 to 15 mM; resulting effective concentrations in the well were 0–750 μM) at a fixed saturating concentration of dimethylcasein (5 mg/mL), or (2) dimethylcasein (ranging from 0 to 15 mg/mL) at a fixed concentration of dansylcadaverine (5 mM; resulting effective concentration of 250 μM), both in the absence or presence of inhibitor 16 (at concentrations of 0, 0.5, 2.5, 15, and 25 μM). These assays were conducted in 50 mM Tris-HCl buffer at pH 8.0, containing 100 mM NaCl, 1 mM DTT, and 10 mM CaCl2 at 37 °C. The obtained data were fitted using the standard Michaelis–Menten equation (eq 2) to determine the values of KM and VMAX. [drawing 2] 2
smiles,measurement,setting,value
Nc1c(/N=N/c2ccc(S(=O)(=O)CCOS(=O)(=O)O)cc2)c(S(=O)(=O)O)cc2cc(S(=O)(=O)O)c(/N=N/c3ccc(S(=O)(=O)CCOS(=O)(=O)O)cc3)c(O)c12 [compound 16],mechanism of FXIIIa inhibition (Michaelis–Menten kinetics),,only competes with the Gln-donor protein substrate
same,"decrease in VMAX, dansylcadaverine varied",16 at 25 μM vs absence,~1.5 fold
same,"decrease in VMAX, dimethylcasein varied",16 at 25 μM vs absence,~1.4 fold
same,decrease in dansylcadaverine binding affinity (KM increase),16 at 25 μM vs absence,~2 fold
same,decrease in dimethylcasein binding affinity (KM increase),16 at 25 μM vs absence,~11.6 fold
same,"VMAX, dansylcadaverine varied",[16] = 0.5 μM,111.4 ± 4.1 RFU/min (×10^3)
same,"VMAX, dimethylcasein varied",[16] = 0.5 μM,43.5 ± 2.4 RFU/min (×10^3)
same,"VMAX, dansylcadaverine varied",[16] = 2.5 μM,89.76 ± 3.8 RFU/min (×10^3)
same,"VMAX, dimethylcasein varied",[16] = 2.5 μM,42.0 ± 0.6 RFU/min (×10^3)
same,"VMAX, dansylcadaverine varied",[16] = 15 μM,81.94 ± 4.0 RFU/min (×10^3)
same,"VMAX, dimethylcasein varied",[16] = 15 μM,44.5 ± 1.5 RFU/min (×10^3)
same,"VMAX, dansylcadaverine varied",[16] = 25 μM,69.69 ± 2.9 RFU/min (×10^3)
same,"VMAX, dimethylcasein varied",[16] = 25 μM,34.9 ± 2.0 RFU/min (×10^3)
